Test results taken from ChEMBL document CHEMBL4325853, “Design, synthesis and antibacterial evaluation of 2,4-disubstituted-6-thiophenyl-pyrimidines” (Eur J Med Chem, 2019).
Values after ≈ are worked out from the molar mass of the structure shown. Active and inactive are the calls of the source. The calls are words filed in the database; no cut-off is given here.

Experiments:
[1] = system: Staphylococcus aureus; assay: Antibacterial activity against methicillin-resistant Staphylococcus aureus isolate 2931 after 18 hrs by broth microdilution method; format: functional; conditions: isolate 2931, 18 h
[2] = Selectivity index, ratio of HC50 for human erythrocytes to MIC for methicillin-resistant Staphylococcus aureus ATCC 33591; format: toxicity; conditions: read-out: Selectivity Index
[3] = system: Staphylococcus aureus; assay: Antibacterial activity against methicillin-resistant Staphylococcus aureus isolate 2350 after 18 hrs by broth microdilution method; format: functional; conditions: isolate 2350, 18 h
[4] = system: Staphylococcus aureus; assay: Antibacterial activity against methicillin-resistant Staphylococcus aureus isolate 3123 after 18 hrs by broth microdilution method; format: functional; conditions: isolate 3123, 18 h
[5] = system: Staphylococcus aureus; assay: Antibacterial activity against methicillin-resistant Staphylococcus aureus isolate 1220 after 18 hrs by broth microdilution method; format: functional; conditions: isolate 1220, 18 h
[6] = system: Staphylococcus aureus; assay: Antibacterial activity against methicillin-resistant Staphylococcus aureus isolate 7916 after 18 hrs by broth microdilution method; format: functional; conditions: isolate 7916, 18 h
[7] = system: Staphylococcus aureus; assay: Potency index, ratio of methicillin MIC to test compound MIC for methicillin-resistant Staphylococcus aureus ATCC 33591; format: functional
[8] = system: Staphylococcus aureus; assay: Antibacterial activity against Staphylococcus aureus ATCC 29213 after 10 passages by broth microdilution method; format: functional, organism-based
[9] = system: Staphylococcus aureus; assay: Antibacterial activity against methicillin-resistant Staphylococcus aureus isolate 8071 after 18 hrs by broth microdilution method; format: functional; conditions: isolate 8071, 18 h
[10] = system: Staphylococcus aureus; assay: Antibacterial activity against methicillin-resistant Staphylococcus aureus isolate 7807 after 18 hrs by broth microdilution method; format: functional; conditions: isolate 7807, 18 h
[11] = target: T1, Cell division protein FtsZ (Staphylococcus aureus) (UniProt P0A031); assay: Inhibition of recombinant Staphylococcus aureus FtsZ polymerization at 8 ug/ml by 90 degree light scattering-based fluorescence spectrometric analysis
T1 sequence (whole entry): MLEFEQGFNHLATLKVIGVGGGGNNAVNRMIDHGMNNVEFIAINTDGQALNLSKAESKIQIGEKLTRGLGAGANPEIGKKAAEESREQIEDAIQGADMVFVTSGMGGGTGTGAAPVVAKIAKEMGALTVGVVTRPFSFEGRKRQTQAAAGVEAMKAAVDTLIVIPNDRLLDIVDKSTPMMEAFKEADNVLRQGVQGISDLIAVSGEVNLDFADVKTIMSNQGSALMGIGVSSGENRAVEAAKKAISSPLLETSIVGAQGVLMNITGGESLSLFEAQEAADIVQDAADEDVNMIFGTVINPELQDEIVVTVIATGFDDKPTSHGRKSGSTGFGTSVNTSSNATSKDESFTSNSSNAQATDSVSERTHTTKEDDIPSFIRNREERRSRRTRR

[12] = system: Staphylococcus aureus; assay: Antibacterial activity against methicillin-resistant Staphylococcus aureus isolate 7943 after 18 hrs by broth microdilution method; format: functional; conditions: isolate 7943, 18 h
[13] = system: Staphylococcus aureus; assay: Antibacterial activity against methicillin-resistant Staphylococcus aureus isolate 7971 after 18 hrs by broth microdilution method; format: functional; conditions: isolate 7971, 18 h
[14] = system: Staphylococcus aureus; assay: Antibacterial activity against methicillin-resistant Staphylococcus aureus isolate 6515 after 18 hrs by broth microdilution method; format: functional; conditions: isolate 6515, 18 h
[15] = system: Staphylococcus aureus; assay: Antibacterial activity against methicillin-resistant Staphylococcus aureus isolate 7863 after 18 hrs by broth microdilution method; format: functional; conditions: isolate 7863, 18 h
[16] = system: Staphylococcus aureus; assay: Antibacterial activity against methicillin-resistant Staphylococcus aureus isolate 7449 after 18 hrs by broth microdilution method; format: functional; conditions: isolate 7449, 18 h
[17] = system: Staphylococcus aureus; assay: Antibacterial activity against methicillin-resistant Staphylococcus aureus ATCC 33591 after 18 hrs by broth microdilution method; format: functional; conditions: ATCC 33591, 18 h
[18] = Selectivity index, ratio of HC50 for human erythrocytes to MIC for methicillin-resistant Staphylococcus aureus ATCC BAA41; format: toxicity; conditions: read-out: Selectivity Index
[19] = system: Staphylococcus aureus; assay: Antibacterial activity against methicillin-resistant Staphylococcus aureus isolate 5056 after 18 hrs by broth microdilution method; format: functional; conditions: isolate 5056, 18 h
[20] = Selectivity index, ratio of HC50 for human erythrocytes to MIC for methicillin-resistant Staphylococcus aureus ATCC 43300; format: toxicity; conditions: read-out: Selectivity Index
[21] = system: Staphylococcus aureus; assay: Antibacterial activity against Staphylococcus aureus ATCC 29213 after 18 hrs by broth microdilution method; format: functional; conditions: ATCC 29213, 18 h
[22] = system: Staphylococcus aureus; assay: Antibacterial activity against methicillin-resistant Staphylococcus aureus isolate 7960 after 18 hrs by broth microdilution method; format: functional; conditions: isolate 7960, 18 h
[23] = system: Staphylococcus aureus; assay: Ratio of MBC to MIC for methicillin-resistant Staphylococcus aureus ATCC 43300; format: functional
[24] = system: Bacillus subtilis; assay: Antibacterial activity against Bacillus subtilis 168 after 18 hrs by broth microdilution method; format: functional; conditions: subsp. subtilis str. 168, 18 h
[25] = system: Staphylococcus aureus; assay: Antibacterial activity against methicillin-resistant Staphylococcus aureus isolate 2671 after 18 hrs by broth microdilution method; format: functional; conditions: isolate 2671, 18 h
[26] = system: Staphylococcus epidermidis; assay: Antibacterial activity against Staphylococcus epidermidis ATCC 12228 after 18 hrs by broth microdilution method; format: functional; conditions: ATCC 12228, 18 h
[27] = system: Staphylococcus aureus; assay: Antibacterial activity against methicillin-resistant Staphylococcus aureus isolate 1428 after 18 hrs by broth microdilution method; format: functional; conditions: isolate 1428, 18 h
[28] = system: Staphylococcus aureus; assay: Antibacterial activity against methicillin-resistant Staphylococcus aureus isolate 7183 after 18 hrs by broth microdilution method; format: functional; conditions: isolate 7183, 18 h
[29] = target: T1, Cell division protein FtsZ (Staphylococcus aureus); assay: Inhibition of recombinant Staphylococcus aureus FtsZ GTPase activity assessed as reduction in inorganic phosphate formation after 30 mins by colorimetric method
[30] = system: Staphylococcus aureus; assay: Ratio of MIC for Staphylococcus aureus ATCC 29213 after and before 11 to 21 serial passages; format: functional
[31] = Hemolytic activity against human erythrocytes measured after 1 hr; format: ADME, cell-based, Erythrocyte
[32] = system: Enterococcus faecalis; assay: Antibacterial activity against Enterococcus faecalis ATCC 29212 after 18 hrs by broth microdilution method; format: functional; conditions: ATCC 29212, 18 h
[33] = system: Enterococcus faecalis; assay: Antibacterial activity against vancomycin-resistant Enterococcus faecalis ATCC 51575 after 18 hrs by broth microdilution method; format: functional; conditions: ATCC 51575, 18 h
[34] = Selectivity index, ratio of HC50 for human erythrocytes to MIC for methicillin-resistant Staphylococcus aureus ATCC 33592; format: toxicity; conditions: read-out: Selectivity Index
[35] = system: Staphylococcus aureus; assay: Antibacterial activity against methicillin-resistant Staphylococcus aureus isolate 4955 after 18 hrs by broth microdilution method; format: functional; conditions: isolate 4955, 18 h
[36] = system: Staphylococcus aureus; assay: Antibacterial activity against methicillin-resistant Staphylococcus aureus isolate 2491 after 18 hrs by broth microdilution method; format: functional; conditions: isolate 2491, 18 h
[37] = Selectivity index, ratio of HC50 for human erythrocytes to MIC for methicillin-resistant Staphylococcus aureus ATCC BAA1720; format: toxicity; conditions: read-out: Selectivity Index
[38] = system: Staphylococcus aureus; assay: Potency index, ratio of methicillin MIC to test compound MIC for methicillin-resistant Staphylococcus aureus ATCC BAA1720; format: functional
[39] = system: Staphylococcus aureus; assay: Antibacterial activity against methicillin-resistant Staphylococcus aureus isolate 7434 after 18 hrs by broth microdilution method; format: functional; conditions: isolate 7434, 18 h
[40] = system: Staphylococcus aureus; assay: Antibacterial activity against methicillin-resistant Staphylococcus aureus isolate 7717 after 18 hrs by broth microdilution method; format: functional; conditions: isolate 7717, 18 h
[41] = system: Staphylococcus aureus; assay: Antibacterial activity against methicillin-resistant Staphylococcus aureus ATCC 33592 after 18 hrs by broth microdilution method; format: functional; conditions: ATCC 33592, 18 h

CC(C)(C)c1ccc(CN2CCCN(CCc3cc(-c4cccs4)nc(-c4ccncc4)n3)CC2)cc1
MIC90 [1]: 2 µg/mL (≈ 3.91 µM) | selectivity ratio [2]: > 32 | MIC90 [3]: 2 µg/mL (≈ 3.91 µM) | MIC90 [4]: 2 µg/mL (≈ 3.91 µM) | MIC90 [5]: 2 µg/mL (≈ 3.91 µM) | MIC90 [6]: 2 µg/mL (≈ 3.91 µM) | Ratio [7]: >100 | Activity [8]: Active | MIC90 [9]: 2 µg/mL (≈ 3.91 µM) | MIC90 [10]: 2 µg/mL (≈ 3.91 µM) | inhibition [11]: Active | MIC90 [12]: 2 µg/mL (≈ 3.91 µM) | MIC90 [13]: 2 µg/mL (≈ 3.91 µM) | MIC90 [14]: 4 µg/mL (≈ 7.82 µM) | MIC90 [15]: 2 µg/mL (≈ 3.91 µM) | MIC90 [16]: 2 µg/mL (≈ 3.91 µM) | MIC90 [17]: 2 µg/mL (≈ 3.91 µM) | selectivity ratio [18]: > 32 | MIC90 [19]: 2 µg/mL (≈ 3.91 µM) | selectivity ratio [20]: > 32 | MIC90 [21]: 2 µg/mL (≈ 3.91 µM) | MIC90 [22]: 2 µg/mL (≈ 3.91 µM) | Ratio [23]: 2 | MIC90 [24]: 2 µg/mL (≈ 3.91 µM) | MIC90 [25]: 2 µg/mL (≈ 3.91 µM) | MIC90 [26]: 2 µg/mL (≈ 3.91 µM) | MIC90 [27]: 2 µg/mL (≈ 3.91 µM) | MIC90 [28]: 2 µg/mL (≈ 3.91 µM) | inhibition [29]: Dose-dependent effect | Activity [30]: Active | HC50 at 1 h [31]: > 64 µg/mL | MIC90 [32]: 2 µg/mL (≈ 3.91 µM) | MIC90 [33]: 4 µg/mL (≈ 7.82 µM) | selectivity ratio [34]: > 32 | MIC90 [35]: 2 µg/mL (≈ 3.91 µM) | MIC90 [36]: 4 µg/mL (≈ 7.82 µM) | selectivity ratio [37]: > 32 | Ratio [38]: >100 | MIC90 [39]: 2 µg/mL (≈ 3.91 µM) | MIC90 [40]: 2 µg/mL (≈ 3.91 µM) | MIC90 [41]: 2 µg/mL (≈ 3.91 µM)

FC(F)(F)c1ccc(CN2CCCN(CCc3cc(-c4cccs4)nc(-c4ccncc4)n3)CC2)cc1
MIC90 [1]: 4 µg/mL (≈ 7.64 µM) | MIC90 [3]: 4 µg/mL (≈ 7.64 µM) | MIC90 [4]: 4 µg/mL (≈ 7.64 µM) | MIC90 [5]: 4 µg/mL (≈ 7.64 µM) | MIC90 [6]: 4 µg/mL (≈ 7.64 µM) | Ratio [7]: >100 | MIC90 [9]: 4 µg/mL (≈ 7.64 µM) | MIC90 [10]: 4 µg/mL (≈ 7.64 µM) | MIC90 [12]: 4 µg/mL (≈ 7.64 µM) | MIC90 [13]: 4 µg/mL (≈ 7.64 µM) | MIC90 [14]: 4 µg/mL (≈ 7.64 µM) | MIC90 [15]: 4 µg/mL (≈ 7.64 µM) | MIC90 [16]: 4 µg/mL (≈ 7.64 µM) | MIC90 [17]: 4 µg/mL (≈ 7.64 µM) | MIC90 [19]: 4 µg/mL (≈ 7.64 µM) | MIC90 [21]: 4 µg/mL (≈ 7.64 µM) | MIC90 [22]: 4 µg/mL (≈ 7.64 µM) | Ratio [23]: 2 | MIC90 [24]: 4 µg/mL (≈ 7.64 µM) | MIC90 [25]: 4 µg/mL (≈ 7.64 µM) | MIC90 [26]: 4 µg/mL (≈ 7.64 µM) | MIC90 [27]: 4 µg/mL (≈ 7.64 µM) | MIC90 [28]: 4 µg/mL (≈ 7.64 µM) | MIC90 [32]: 4 µg/mL (≈ 7.64 µM) | MIC90 [33]: 4 µg/mL (≈ 7.64 µM) | MIC90 [35]: 4 µg/mL (≈ 7.64 µM) | MIC90 [36]: 8 µg/mL (≈ 15.3 µM) | Ratio [38]: >100 | MIC90 [39]: 8 µg/mL (≈ 15.3 µM) | MIC90 [40]: 4 µg/mL (≈ 7.64 µM) | MIC90 [41]: 4 µg/mL (≈ 7.64 µM)
